From patent US10266526B2, “Substituted 1,2,3-triazoles as SMYD inhibitors for treating cancer” (EPIZYME, INC., priority 2014, dated 2019)

Target: SMYD3 (Homo sapiens (Human), UniProt Q9H7B4)
Assay: SMYD3 biochemical assay (SMYD3 enzyme assay on MEKK2 protein substrate, 3H-SAM scintillation proximity assay)
Conditions: read-out: SMYD3 Biochem IC50 (μM)*
Description: S-adenosylmethionine (SAM), S-adenosylhomocysteine (SAH), Tris, Tween20, dimethylsulfoxide (DMSO), bovine skin gelatin (BSG), and Tris(2-carboxyethyl)phosphine hydrochloride solution (TCEP) were purchased from Sigma-Aldrich at the highest level of purity possible. ^3H-SAM was purchase from American Radiolabeled Chemicals with a specific activity of 80 Ci/mmol. 384-well opaque white OptiPlates and SPA beads (Perkin Elmer, catalog # RPNQ0013) were purchased from PerkinElmer.
N-terminally GST-tagged MEKK2 (MAP3K2) protein corresponding to reference sequence AAF63496.3 was purchased from Life Technologies (catalog # PV4010). This protein was expressed in High Five insect cells and purified to >85% purity. Protein identity was confirmed by MS/MS analysis after proteolytic digestion. The protein sequence used was:
Full-length human SMYD3 isoform 1 (BAB86333) was inserted into a modified pET21b plasmid containing a His6 tag and TEV and SUMO cleavage sites.
E. coli (BL21 codonplus RIL strain, Stratagene) were transformed with plasmid pEPZ553 by mixing competent cells and plasmid DNA and incubating on ice for 30 minutes followed by heat shock at 42° C. for 1 minute and cooling on ice for 2 minutes. Transformed cells were grown and selected on LB agar with 100 μg/mL ampicillin and 17 μg/mL chloramphenicol at 37° C. overnight. A single clone was used to inoculate 200 mL of LB medium with 100 μg/mL ampicillin and 17 μg/mL chloramphenicol and incubated at 37° C. on an orbital shaker at 180 rpm. Once in log growth, the culture was diluted 1:100 into 2 L of LB medium and grown until OD600 was about 0.3 after which the culture was incubated at 15° C. and 160 rpm. Once OD600 reached about 0.4, IPTG was added to a final concentration of 0.1 mM and the cells were grown overnight at 15° C. and 160 rpm. Cells were harvested by centrifugation at 8000 rpm, for 4 minutes at 4° C. and stored at −80° C. for purification.
The column was washed with Buffer B (Buffer A plus 20 mM imidazole) and His-tagged SMYD3 was eluted with Buffer C (Buffer A plus 300 mM imidazole). The His tag, TEV and SUMO cleavage sites were removed generating native SMYD3 by addition of ULP1 protein at a ratio of 1:200 (ULP1:SMYD3). Imidazole was removed by dialysis overnight in Buffer A. The dialyzed solution was applied to a second Nickel column and the native SMYD3 protein was collected from the column flow-through. The flow-through was dialyzed in Buffer D (25 mM Tris, 5% glycerol, 5 mM β-mercaptoethanol, 50 mM NaCl, pH7.8) and ULP1 was removed using a Q sepharose fast flow column.
General Procedure for SMYD3 Enzyme Assays on MEKK2 Protein Substrate
The assays were all performed in a buffer consisting of 25 mM Tris-Cl pH 8.0, 1 mM TCEP, 0.005% BSG, and 0.005% Tween 20, prepared on the day of use. […] DMSO (1 ul) was added to Columns 11, 12, 23, 24, rows A-H for the maximum signal control and 1 ul of SAH, a known product and inhibitor of SMYD3, was added to columns 11, 12, 23, 24, rows I-P for the minimum signal control. A cocktail (40 ul) containing the SMYD3 enzyme was added by Multidrop Combi (Thermo-Fisher). The compounds were allowed to incubate with SMYD3 for 30 min at room temperature, then a cocktail (10 ul) containing SAM and MEKK2 was added to initiate the reaction (final volume=51 ul). […] The assays were stopped by the addition of non-radiolabeled SAM (10 ul) to a final concentration of 100 uM, which dilutes the ^3H-SAM to a level where its incorporation into MEKK2 is no longer detectable. Radiolabeled MEKK2 was detected using a scintillation proximity assay (SPA). 10 uL of a 10 mg/mL solution of SPA beads in 0.5 M citric acid was added and the plates centrifuged at 600 rpm for 1 min to precipitate the radiolabeled MEKK2 onto the SPA beads.

Sequence of SMYD3 (Q9H7B4 whole entry): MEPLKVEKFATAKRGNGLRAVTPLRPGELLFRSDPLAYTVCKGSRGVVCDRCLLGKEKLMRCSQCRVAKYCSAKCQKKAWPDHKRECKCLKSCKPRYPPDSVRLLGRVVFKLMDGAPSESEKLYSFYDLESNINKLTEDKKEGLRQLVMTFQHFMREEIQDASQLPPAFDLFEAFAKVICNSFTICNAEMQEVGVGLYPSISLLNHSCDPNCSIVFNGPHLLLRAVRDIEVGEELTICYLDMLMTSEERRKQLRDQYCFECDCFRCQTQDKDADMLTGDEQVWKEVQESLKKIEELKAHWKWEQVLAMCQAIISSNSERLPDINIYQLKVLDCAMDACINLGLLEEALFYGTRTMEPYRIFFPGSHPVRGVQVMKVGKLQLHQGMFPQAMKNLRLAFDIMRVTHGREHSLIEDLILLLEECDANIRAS

IC50 [µM]	Structure (SMILES)
89.3	N[C@H]1CC[C@H](NC(=O)c2ccc3c(c2)NC(=O)C3)CC1 [compound 71, N-((1r,4r)-4-aminocyclohexyl)-2-oxoindoline-6-carboxamide]
35.5	N[C@@H](Cc1ccc(O)cc1)C(=O)N1CCC(NC(=O)c2ccc3c(c2)NC(=O)C3)CC1 [compound 72, N-(1-(L-tyrosyl)piperidin-4-yl)-2-oxoindoline-6-carboxamide]
65.8	N[C@H]1CC[C@H](NC(=O)c2ccc3c(c2)CCC(=O)N3)CC1 [compound 74, N-((1r,4r)-4-aminocyclohexyl)-2-oxo-1,2,3,4-tetrahydroquinoline-6-carboxamide]
9.37	CC(NC(=O)c1ccc2c(c1)CC(=O)N2)C1CCN(C(=O)[C@@H](C)N)CC1 (stereo partly drawn) [compound 87, N-(1-(1-(D-alanyl)piperidin-4-yl)ethyl)-2-oxoindoline-5-carboxamide]
50	CC(NC(=O)c1ccc2c(c1)NC(=O)CC2)C1CCN(C(=O)[C@H](C)N)CC1 (stereo partly drawn) [compound 92, N-(1-(1-(L-alanyl)piperidin-4-yl)ethyl)-2-oxo-1,2,3,4-tetrahydroquinoline-7-carboxamide]
150	CC(NC(=O)c1ccc2oc(=O)ccc2c1)C1CCN(C(=O)[C@H](C)N)CC1 (stereo partly drawn) [compound 95, N-(1-(1-(L-alanyl)piperidin-4-yl)ethyl)-2-oxo-2H-chromene-6-carboxamide]
193	CC(NC(=O)c1ccc2c(c1)CCC(=O)N2)C1CCN(C(=O)[C@H](C)N)CC1 (stereo partly drawn) [compound 96, N-(1-(1-(L-alanyl)piperidin-4-yl)ethyl)-2-oxo-1,2,3,4-tetrahydroquinoline-6-carboxamide]
146	CC(NC(=O)c1ccc2cc(N)ccc2c1)C1CCN(C(=O)[C@H](C)N)CC1 (stereo partly drawn) [compound 97, N-(1-(1-(L-alanyl)piperidin-4-yl)ethyl)-6-amino-2-naphthamide]
151	COc1cc(C(=O)NC(C)C2CCN(C(=O)[C@H](C)N)CC2)cc2c1OCC(=O)N2 (stereo partly drawn) [compound 98, N-(1-(1-(L-alanyl)piperidin-4-yl)ethyl)-8-methoxy-3-oxo-3,4-dihydro-2H-benzo[b][1,4]oxazine-6-carboxamide]
35.7	CC(NC(=O)c1ccc2ncc(O)nc2c1)C1CCN(C(=O)[C@H](C)N)CC1 (stereo partly drawn) [compound 99, N-(1-(1-(L-alanyl)piperidin-4-yl)ethyl)-3-hydroxyquinoxaline-6-carboxamide]
25.4	O=C1Cc2cc(C(=O)NC[C@H]3CCNC3)ccc2N1 [compound 101, (S)-2-oxo-N-(pyrrolidin-3-ylmethyl)indoline-5-carboxamide]

Further lines, the compound ahead of its results:

Structure (SMILES)	IC50 [µM]
CC(CC(=O)NC(c1ccccc1)C1CCNCC1)C1CC1 (stereo not shown) [compound 63, 3-cyclopropyl-N-(phenyl(piperidin-4-yl)methyl)butanamide]	131
CC(=O)c1c[nH]c(C(=O)N[C@H]2CC[C@H](N)CC2)c1 [compound 64, 4-acetyl-N-((1r,4r)-4-aminocyclohexyl)-1H-pyrrole-2-carboxamide]	134
CC(=O)c1c[nH]c(C(=O)NC2CCNCC2)c1 [compound 65, 4-acetyl-N-(piperidin-4-yl)-1H-pyrrole-2-carboxamide]	45.8
CC(=O)c1c[nH]c(C(=O)Nc2ccc(CN)cc2)c1 [compound 66, 4-acetyl-N-(4-(aminomethyl)phenyl)-1H-pyrrole-2-carboxamide]	60.9
Cn1nc(O)cc1C(=O)N[C@H]1CC[C@H](N)CC1 [compound 67, N-((1r,4r)-4-ammocyclohexyl)-3-hydroxy-1-methyl-1H-pyrazole-5-carboxamide]	129
O=C1Cc2cc(C(=O)NC3CCNCC3)cnc2N1 [compound 68, 2-oxo-N-(piperidin-4-yl)-2,3-dihydro-1H-pyrrolo[2,3-b]pyridine-5-carboxamide]	86.1
Cn1nc(O)cc1C(=O)NC1CCNCC1 [compound 69, 3-hydroxy-1-methyl-N-(piperidin-4-yl)-1H-pyrazole-5-carboxamide]	19.7
N[C@H]1CC[C@H](NC(=O)c2ccc3c(c2)NC(=O)CN3)CC1 [compound 70, N-((1r,4r)-4-aminocyclohexyl)-3-oxo-1,2,3,4-tetrahydroquinoxaline-6-carboxamide]	77.5
N[C@H]1CC[C@H](NC(=O)c2ccc3[nH]c(=O)[nH]c3c2)CC1 [compound 73, N-((1r,4r)-4-aminocyclohexyl)-2-oxo-2,3-dihydro-1H-benzo[d]imidazole-5-carboxamide]	13.7
Nc1ccc2cc(C(=O)N[C@H]3CC[C@H](N)CC3)ccc2c1 [compound 75, 6-amino-N-((1r,4r)-4-aminocyclohexyl)-2-naphthamide]	62.5
N[C@H]1CC[C@H](NC(=O)c2ccc3nc(O)ccc3c2)CC1 [compound 76, N-((1r,4r)-4-aminocyclohexyl)-2-hydroxyquinoline-6-carboxamide]	115
CCC(=O)c1c[nH]c(C(=O)NC(c2ccccc2)C2CCNCC2)c1 (stereo not shown) [compound 77, N-(phenyl(piperidin-4-yl)methyl)-4-propionyl-1H-pyrrole-2-carboxamide]	10
CCS(=O)(=O)C(C)C(=O)N[C@H]1CC[C@H](N)CC1 (stereo partly shown) [compound 78, N-((1r,4r)-4-aminocyclohexyl)-2-(ethylsulfonyl)propanamide]	35.2
CN(C)Cc1ccc(C(=O)N[C@H]2CC[C@H](N)CC2)o1 [compound 79, N-((1r,4r)-4-aminocyclohexyl)-5-((dimethylamino)methyl)furan-2-carboxamide]	38.9
Nc1nc(C(=O)NC(c2ccccc2)C2CCNCC2)co1 (stereo not shown) [compound 80, 2-amino-N-(phenyl(piperidin-4-yl)methyl)oxazole-4-carboxamide]	97.1
Cc1cc2[nH]c(C(=O)Nc3ccc(CN)cc3)cc2o1 [compound 81, N-(4-(aminomethyl)phenyl)-2-methyl-4H-furo[3,2-b]pyrrole-5-carboxamide]	25.9
CN1C(=O)Cc2cc(C(=O)NC3CCN(C(=O)[C@@H](N)Cc4ccc(O)cc4)CC3)ccc21 [compound 82, N-(1-(L-tyrosyl)piperidin-4-yl)-1-methyl-2-oxoindoline-5-carboxamide]	8.7
CN1C(=O)Cc2cc(C(=O)NC3CCN(C(=O)[C@@H](N)Cc4c[nH]c5ccccc45)CC3)ccc21 [compound 83, N-(1-(L-tryptophyl)piperidin-4-yl)-1-methyl-2-oxoindoline-5-carboxamide]	12.9
CN1C(=O)Cc2cc(C(=O)N[C@H]3CC[C@H](N)CC3)ccc21 [compound 84, N-((1r,4r)-4-aminocyclohexyl)-1-methyl-2-oxoindoline-5-carboxamide]	16.7
COc1cc(C(=O)N[C@H]2CC[C@H](N)CC2)cc2c1OCC(=O)N2 [compound 85, N-((1r,4r)-4-aminocyclohexyl)-8-methoxy-3-oxo-3,4-dihydro-2H-benzo[b][1,4]oxazine-6-carboxamide]	184
CN1C(=O)Cc2ccc(C(=O)NC3CCN(C(=O)[C@@H](N)Cc4ccc(O)cc4)CC3)cc21 [compound 88, N-(1-(L-tyrosyl)piperidin-4-yl)-1-methyl-2-oxoindoline-6-carboxamide]	193
N[C@H]1CC[C@H](NC(=O)c2ccc3[nH]c(=O)oc3c2)CC1 [compound 90, N-((1r,4r)-4-aminocyclohexyl)-2-oxo-2,3-dihydrobenzo[d]oxazole-6-carboxamide]	9.76
N[C@H]1CC[C@H](NC(=O)c2ccc3c(c2)NC(=O)CC3)CC1 [compound 91, N-((1r,4r)-4-aminocyclohexyl)-2-oxo-1,2,3,4-tetrahydroquinoline-7-carboxamide]	89.5
